Laboratory results as given in patent US4771046A, “Carbapenem derivatives” (Sankyo Company, Limited, priority 1985, dated 1988).
Values after ≈ are worked out from the molar mass of the structure shown.

Tests used:
[1] = test system: mice; test: Toxicity in mice (survival); assay type: in vivo
[2] = test system: Klebsiella pneumoniae 806; test: Minimum inhibitory concentration, agar plate dilution method; assay type: cell-based
Source text: (§1) Table 2 sets out the activities of six of the compounds of the present invention against various bacteria, in terms of their minimal inhibitory concentrations (μg/ml). These compounds are identified by the same numbers as used in Table 1 above.
(§2) Minimum Inhibitory Concentrations (μg/ml)
(§3) In the compounds used in Table 2, compounds 1, 15 and 27 have the (5R,6S) configuration, and compounds 2, 16 and 28 have the (1R,5S,6S) configuration. In all six of the compounds, the configuration of the hydroxy group in the side-chain at position 6 is (1R).

[3] = test system: Enterobacter cloacae 963; test: as above; assay type: cell-based
Source text: as §1, §2, §3

[4] = test system: Proteus vulgaris 1420; test: as above; assay type: cell-based
Source text: as §1, §2, §3

[5] = test system: Klebsiella pneumoniae 846; test: as above; assay type: cell-based
Source text: as §1, §2, §3

[6] = test system: Staphylococcus aureus 56; test: as above; assay type: cell-based
Source text: as §1, §2, §3

[7] = test system: Serratia marcescens 1184; test: as above; assay type: cell-based
Source text: as §1, §2, §3

[8] = test system: Staphylococcus aureus 209P; test: as above; assay type: cell-based
Source text: as §1, §2, §3

[9] = test system: Escherichia coli 609; test: as above; assay type: cell-based
Source text: as §1, §2, §3

[10] = test system: Escherichia coli NIHJ; test: as above; assay type: cell-based
Source text: as §1, §2, §3

[11] = test system: Salmonella enteritidis; test: as above; assay type: cell-based; details: Salmonella enterica
Source text: as §1, §2, §3

[12] = test system: dehydropeptidase I; details: in vivo in mammals; cited from earlier work
[13] = cited from earlier work

SMILES	dosage at which mice survive ([1]; mice)	MIC [2] [µg/mL]	MIC [3] [µg/mL]	MIC [4] [µg/mL]	MIC [5] [µg/mL]	MIC [6] [µg/mL]	MIC [7] [µg/mL]	MIC [8] [µg/mL]	MIC [9] [µg/mL]	MIC [10] [µg/mL]	dosage at which mice survive ([1]; mouse, in vivo)	MIC [11] [µg/mL]	inactivation by dehydropeptidase I [12]	chemical stability in the human body [13]
C[C@@H](O)[C@H]1C(=O)N2C(C(=O)O)=C(SCC(=N)N3CC[C@@H](OC(N)=O)C3)C[C@H]12 [Compound No. 15, (5R,6S)-2-{2-[(3R)-3-Carbamoyloxypyrrolidin-1-yl]-2-iminoethylthio}-6-[(1R)-1-hydroxyethyl]-1-carbapen-2-em-3-carboxylic acid]	above 2,000 mg/kg	0.1 (≈ 0.251 µM)	1.5 (≈ 3.76 µM)	1.5 (≈ 3.76 µM)	0.05 (≈ 0.125 µM)	0.02 (≈ 0.0502 µM)	0.1 (≈ 0.251 µM)	≤ 0.01	0.1 (≈ 0.251 µM)	0.1 (≈ 0.251 µM)	–	–	–	–
C[C@@H](O)[C@H]1C(=O)N2C(C(=O)O)=C(SCC(=N)N3CCC(=NO)CC3)C[C@H]12 [Compound No. 27, (5R,6S)-2-[2-(4-Hydroxyiminopiperidin-1-yl)-2-iminoethylthio]-6-[(1R)-1-hydroxyethyl]-1-carbapen-2-em-3-carboxylic acid]	–	0.1 (≈ 0.261 µM)	0.8 (≈ 2.09 µM)	0.8 (≈ 2.09 µM)	0.05 (≈ 0.131 µM)	0.02 (≈ 0.0523 µM)	0.1 (≈ 0.261 µM)	≤ 0.01	0.1 (≈ 0.261 µM)	0.1 (≈ 0.261 µM)	above 2,000 mg/kg	–	–	–
C[C@@H](O)[C@H]1C(=O)N2C(C(=O)O)=C(SCC(=N)N3CCC(=NO)CC3)[C@H](C)[C@H]12 [Compound No. 28, (1R,5S,6S)-2-[2-(4-Hydroxyiminopiperidin-1-yl)-2-iminoethylthio]-6-[(1R)-1-hydroxyethyl]-1-methyl-1-carbapen-2-em-3-carboxylic acid]	–	0.05 (≈ 0.126 µM)	0.4 (≈ 1.01 µM)	1.5 (≈ 3.78 µM)	0.05 (≈ 0.126 µM)	0.05 (≈ 0.126 µM)	0.1 (≈ 0.252 µM)	≤ 0.01	0.1 (≈ 0.252 µM)	0.02 (≈ 0.0504 µM)	–	–	–	–
C[C@@H](O)[C@H]1C(=O)N2C(C(=O)O)=C(SCC(=N)N3CCN(C)C(=O)C3)C[C@H]12 [Compound No. 3, (5R,6S)-2-[2-(4-Methyl-3-oxopiperazin-1-yl)-2-iminoethylthio]-6-[(1R)-1-hydroxethyl]-1-carbapen-2-em-3-carboxylic acid]	above 2,000 mg/kg	–	–	–	–	–	–	–	–	–	–	–	–	–
C[C@@H](O)[C@H]1C(=O)N2C(C(=O)O)=C(SCC(=N)N3CCNC(=O)C3)C[C@H]12 [Compound No. 1, (5R,6S)-2-[2-(3-Oxopiperazin-1-yl)-2-iminoethylthio]-6-[(1R)-1-hydroxyethyl]-1-carbapen-2-em-3-carboxylic acid]	–	0.2 (≈ 0.543 µM)	0.8 (≈ 2.17 µM)	1.5 (≈ 4.07 µM)	0.1 (≈ 0.271 µM)	0.05 (≈ 0.136 µM)	0.2 (≈ 0.543 µM)	≤ 0.01	0.4 (≈ 1.09 µM)	0.1 (≈ 0.271 µM)	–	0.1 (≈ 0.271 µM)	–	–
C[C@@H](O)[C@H]1C(=O)N2C(C(=O)O)=C(SCC(=N)N3CC[C@@H](OC(N)=O)C3)[C@H](C)[C@H]12 [Compound No. 16, (1R,5S,6S)-2-{2-[(3R)-3-Carbamoyloxypyrrolidin-1-yl]-2-iminoethylthio}-6-[(1R)-1-hydroxyethyl]-1-methyl-1-carbapen-2-em-3-carboxylic acid]	–	0.05 (≈ 0.121 µM)	0.8 (≈ 1.94 µM)	3.1 (≈ 7.52 µM)	0.1 (≈ 0.242 µM)	0.05 (≈ 0.121 µM)	0.1 (≈ 0.242 µM)	≤ 0.01	0.1 (≈ 0.242 µM)	0.05 (≈ 0.121 µM)	–	–	–	–
C[C@@H](O)[C@H]1C(=O)N2C(C(=O)O)=C(SCC(=N)N3CCNC(=O)C3)[C@H](C)[C@H]12 [Compound No. 2, (1R,5S,6S)-2-[2-(3-Oxopiperazin-1-yl)-2-iminoethylthio]-6-[(1R)-1-hydroxyethyl]-1-methyl-1-carbapen-2-em-3-carboxylic acid]	–	0.02 (≈ 0.0523 µM)	0.4 (≈ 1.05 µM)	0.4 (≈ 1.05 µM)	0.05 (≈ 0.131 µM)	0.05 (≈ 0.131 µM)	0.1 (≈ 0.261 µM)	≤ 0.01	0.05 (≈ 0.131 µM)	0.02 (≈ 0.0523 µM)	–	0.05 (≈ 0.131 µM)	–	–
C[C@@H](O)[C@H]1C(=O)N2C(C(=O)O)=C(SCCN)C[C@H]12 [thienamycin, 2-(2-aminoethylthio)-6-(1-hydroxyethyl)carbapen-2-em-3-carboxylic acid]	–	–	–	–	–	–	–	–	–	–	–	–	inactivated in vivo in mammals by dehydropeptidase I	poor
